What was measured:
[1] = target: Beta-2 adrenergic receptor (Homo sapiens, UniProt P07550); format: functional, cell-based
[2] = target: 5-hydroxytryptamine receptor 2B (Homo sapiens, UniProt P41595); format: functional, cell-based
[3] = target: T1, Alpha-1A adrenergic receptor (Homo sapiens, UniProt P35348); format: functional, cell-based
T1 sequence (P35348 whole entry): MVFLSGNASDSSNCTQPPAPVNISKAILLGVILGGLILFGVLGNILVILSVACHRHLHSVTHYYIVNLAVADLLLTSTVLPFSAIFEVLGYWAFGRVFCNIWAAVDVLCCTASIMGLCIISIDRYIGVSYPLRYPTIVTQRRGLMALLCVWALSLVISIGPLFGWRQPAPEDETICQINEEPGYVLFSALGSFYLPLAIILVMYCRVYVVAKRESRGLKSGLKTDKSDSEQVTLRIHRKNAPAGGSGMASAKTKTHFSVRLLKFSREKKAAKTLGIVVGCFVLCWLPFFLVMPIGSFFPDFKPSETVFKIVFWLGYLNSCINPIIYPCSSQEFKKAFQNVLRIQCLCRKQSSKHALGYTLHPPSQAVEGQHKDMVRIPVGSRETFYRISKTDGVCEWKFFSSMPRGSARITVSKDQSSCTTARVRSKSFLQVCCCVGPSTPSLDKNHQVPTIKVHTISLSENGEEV

[4] = target: cGMP-inhibited 3',5'-cyclic phosphodiesterase 3A (Homo sapiens, UniProt Q14432); format: functional
cGMP-inhibited 3',5'-cyclic phosphodiesterase 3A, sequence (Q14432 whole entry): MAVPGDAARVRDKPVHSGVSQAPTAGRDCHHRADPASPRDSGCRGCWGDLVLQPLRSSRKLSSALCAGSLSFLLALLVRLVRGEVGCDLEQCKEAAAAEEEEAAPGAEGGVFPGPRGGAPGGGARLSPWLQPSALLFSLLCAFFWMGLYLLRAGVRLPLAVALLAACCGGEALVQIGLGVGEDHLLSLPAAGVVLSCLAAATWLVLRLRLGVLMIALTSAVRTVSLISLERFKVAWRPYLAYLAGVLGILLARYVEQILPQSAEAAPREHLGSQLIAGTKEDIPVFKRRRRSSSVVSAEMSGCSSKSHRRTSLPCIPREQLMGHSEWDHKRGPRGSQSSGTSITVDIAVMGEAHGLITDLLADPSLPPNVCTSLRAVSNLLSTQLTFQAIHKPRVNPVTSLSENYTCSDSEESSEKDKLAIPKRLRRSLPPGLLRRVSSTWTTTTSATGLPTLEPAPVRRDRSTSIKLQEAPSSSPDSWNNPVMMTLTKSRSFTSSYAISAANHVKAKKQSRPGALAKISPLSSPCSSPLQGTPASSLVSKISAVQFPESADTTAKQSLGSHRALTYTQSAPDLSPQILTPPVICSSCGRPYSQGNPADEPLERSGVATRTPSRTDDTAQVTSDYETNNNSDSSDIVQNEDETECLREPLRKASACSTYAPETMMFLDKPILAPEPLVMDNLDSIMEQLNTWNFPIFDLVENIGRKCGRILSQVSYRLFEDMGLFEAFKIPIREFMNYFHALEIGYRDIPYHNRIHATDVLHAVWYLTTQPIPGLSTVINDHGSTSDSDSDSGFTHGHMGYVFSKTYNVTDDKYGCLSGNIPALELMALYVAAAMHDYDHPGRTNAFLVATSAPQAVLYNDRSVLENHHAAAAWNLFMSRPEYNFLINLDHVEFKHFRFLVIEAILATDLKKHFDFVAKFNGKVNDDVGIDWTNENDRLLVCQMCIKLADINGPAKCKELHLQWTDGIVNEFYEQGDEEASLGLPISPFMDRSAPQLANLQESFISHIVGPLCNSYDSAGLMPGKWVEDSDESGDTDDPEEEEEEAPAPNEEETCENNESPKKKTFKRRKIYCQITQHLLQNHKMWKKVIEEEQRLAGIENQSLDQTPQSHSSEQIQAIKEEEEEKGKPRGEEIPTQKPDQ

[5] = target: Sodium-dependent dopamine transporter (Homo sapiens, UniProt Q01959)
Sodium-dependent dopamine transporter, sequence (Q01959 whole entry): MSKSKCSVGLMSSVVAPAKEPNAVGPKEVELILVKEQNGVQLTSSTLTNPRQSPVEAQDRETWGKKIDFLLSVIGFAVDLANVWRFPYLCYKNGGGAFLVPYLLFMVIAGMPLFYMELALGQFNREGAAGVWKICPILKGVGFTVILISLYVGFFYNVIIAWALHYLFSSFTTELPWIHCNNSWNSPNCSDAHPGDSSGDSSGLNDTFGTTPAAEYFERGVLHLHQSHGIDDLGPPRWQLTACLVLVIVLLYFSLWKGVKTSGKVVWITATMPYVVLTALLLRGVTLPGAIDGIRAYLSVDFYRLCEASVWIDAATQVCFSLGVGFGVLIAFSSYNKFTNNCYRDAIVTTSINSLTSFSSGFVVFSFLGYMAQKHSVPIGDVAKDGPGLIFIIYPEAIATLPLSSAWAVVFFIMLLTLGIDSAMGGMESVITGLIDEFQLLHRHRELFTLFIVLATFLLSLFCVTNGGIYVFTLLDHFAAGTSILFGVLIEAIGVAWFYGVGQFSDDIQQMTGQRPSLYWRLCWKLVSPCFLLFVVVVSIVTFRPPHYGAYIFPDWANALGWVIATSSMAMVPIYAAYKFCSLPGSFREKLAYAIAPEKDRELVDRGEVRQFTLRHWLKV

D(3) dopamine receptor = D(3) dopamine receptor (Homo sapiens, UniProt P35462)
D(3) dopamine receptor, sequence (P35462 whole entry): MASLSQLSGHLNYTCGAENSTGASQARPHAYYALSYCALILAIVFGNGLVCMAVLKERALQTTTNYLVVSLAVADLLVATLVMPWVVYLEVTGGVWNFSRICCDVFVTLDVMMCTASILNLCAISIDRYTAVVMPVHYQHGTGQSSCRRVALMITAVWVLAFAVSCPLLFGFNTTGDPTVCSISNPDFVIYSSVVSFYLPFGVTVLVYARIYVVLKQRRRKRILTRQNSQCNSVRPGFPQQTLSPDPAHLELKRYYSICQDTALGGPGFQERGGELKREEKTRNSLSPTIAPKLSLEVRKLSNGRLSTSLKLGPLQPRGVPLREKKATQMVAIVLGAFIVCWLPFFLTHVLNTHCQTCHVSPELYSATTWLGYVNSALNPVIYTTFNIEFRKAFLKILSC

[6] = target: T2, Gamma-aminobutyric acid receptor subunit alpha-1 (Rattus norvegicus, UniProt P62813); format: functional
T2 sequence (P62813 whole entry): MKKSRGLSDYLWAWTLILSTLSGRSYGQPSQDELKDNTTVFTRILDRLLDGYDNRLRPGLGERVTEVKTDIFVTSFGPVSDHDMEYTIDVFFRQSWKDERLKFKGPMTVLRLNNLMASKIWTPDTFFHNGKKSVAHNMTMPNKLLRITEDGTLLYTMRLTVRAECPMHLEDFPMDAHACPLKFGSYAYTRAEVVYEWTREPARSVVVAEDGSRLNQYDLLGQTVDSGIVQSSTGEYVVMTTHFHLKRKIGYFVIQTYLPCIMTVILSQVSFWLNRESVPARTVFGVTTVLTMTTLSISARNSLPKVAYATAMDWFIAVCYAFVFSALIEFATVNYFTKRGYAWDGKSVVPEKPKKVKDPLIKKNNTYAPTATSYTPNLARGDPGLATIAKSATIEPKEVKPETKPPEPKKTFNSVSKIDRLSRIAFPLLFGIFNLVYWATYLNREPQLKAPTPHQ

[7] = target: T3, 5-hydroxytryptamine receptor 1A (Homo sapiens, UniProt P08908); format: functional, cell-based
T3 sequence (P08908 whole entry): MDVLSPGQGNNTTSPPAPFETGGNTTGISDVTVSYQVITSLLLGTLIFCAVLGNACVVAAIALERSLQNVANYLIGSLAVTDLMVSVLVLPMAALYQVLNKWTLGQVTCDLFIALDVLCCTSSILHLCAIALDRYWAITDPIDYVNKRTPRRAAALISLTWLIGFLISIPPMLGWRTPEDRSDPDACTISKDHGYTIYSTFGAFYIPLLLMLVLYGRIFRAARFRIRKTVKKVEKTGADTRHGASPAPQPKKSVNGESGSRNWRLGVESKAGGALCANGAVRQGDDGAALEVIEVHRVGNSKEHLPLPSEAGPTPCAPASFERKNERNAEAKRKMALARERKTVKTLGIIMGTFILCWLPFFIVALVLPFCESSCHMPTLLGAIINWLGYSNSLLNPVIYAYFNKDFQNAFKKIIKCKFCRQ

Estrogen receptor = target: T4, Estrogen receptor (Homo sapiens, UniProt P03372)
T4 sequence (P03372 whole entry): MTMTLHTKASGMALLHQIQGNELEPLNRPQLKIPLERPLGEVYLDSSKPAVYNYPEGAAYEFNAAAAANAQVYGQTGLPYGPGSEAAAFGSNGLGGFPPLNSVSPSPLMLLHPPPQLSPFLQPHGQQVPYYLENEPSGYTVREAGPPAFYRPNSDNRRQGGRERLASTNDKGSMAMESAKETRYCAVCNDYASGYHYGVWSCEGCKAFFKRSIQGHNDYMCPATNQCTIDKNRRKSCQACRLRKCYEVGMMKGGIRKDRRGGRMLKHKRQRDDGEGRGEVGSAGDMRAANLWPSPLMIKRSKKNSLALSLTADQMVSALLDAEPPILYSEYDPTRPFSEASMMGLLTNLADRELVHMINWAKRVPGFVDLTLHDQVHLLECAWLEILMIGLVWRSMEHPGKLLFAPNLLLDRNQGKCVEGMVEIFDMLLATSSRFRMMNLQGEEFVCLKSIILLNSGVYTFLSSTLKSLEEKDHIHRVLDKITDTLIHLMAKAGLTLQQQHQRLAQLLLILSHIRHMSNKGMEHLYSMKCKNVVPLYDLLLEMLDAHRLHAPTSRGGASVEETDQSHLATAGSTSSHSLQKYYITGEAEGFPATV

[8] = target: Beta-1 adrenergic receptor (Homo sapiens, UniProt P08588); format: functional
Beta-1 adrenergic receptor, sequence (P08588 whole entry): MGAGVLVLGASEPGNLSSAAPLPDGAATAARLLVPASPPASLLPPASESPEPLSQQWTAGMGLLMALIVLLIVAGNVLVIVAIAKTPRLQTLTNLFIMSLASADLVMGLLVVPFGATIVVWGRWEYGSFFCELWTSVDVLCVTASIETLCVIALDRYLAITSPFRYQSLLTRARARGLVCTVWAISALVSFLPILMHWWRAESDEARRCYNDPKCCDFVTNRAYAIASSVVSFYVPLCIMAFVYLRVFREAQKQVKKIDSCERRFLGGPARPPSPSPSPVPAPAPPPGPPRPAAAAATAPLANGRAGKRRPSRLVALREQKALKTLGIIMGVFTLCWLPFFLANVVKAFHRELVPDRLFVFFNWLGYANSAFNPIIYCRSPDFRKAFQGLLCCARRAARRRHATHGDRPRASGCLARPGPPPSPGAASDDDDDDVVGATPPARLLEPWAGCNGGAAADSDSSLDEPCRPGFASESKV

[9] = target: T2, Gamma-aminobutyric acid receptor subunit alpha-1
[10] = target: Glutamate receptor ionotropic, NMDA 1 (Rattus norvegicus, UniProt P35439)
Glucocorticoid receptor = target: T5, Glucocorticoid receptor (Homo sapiens, UniProt P04150)
T5 sequence (P04150 whole entry): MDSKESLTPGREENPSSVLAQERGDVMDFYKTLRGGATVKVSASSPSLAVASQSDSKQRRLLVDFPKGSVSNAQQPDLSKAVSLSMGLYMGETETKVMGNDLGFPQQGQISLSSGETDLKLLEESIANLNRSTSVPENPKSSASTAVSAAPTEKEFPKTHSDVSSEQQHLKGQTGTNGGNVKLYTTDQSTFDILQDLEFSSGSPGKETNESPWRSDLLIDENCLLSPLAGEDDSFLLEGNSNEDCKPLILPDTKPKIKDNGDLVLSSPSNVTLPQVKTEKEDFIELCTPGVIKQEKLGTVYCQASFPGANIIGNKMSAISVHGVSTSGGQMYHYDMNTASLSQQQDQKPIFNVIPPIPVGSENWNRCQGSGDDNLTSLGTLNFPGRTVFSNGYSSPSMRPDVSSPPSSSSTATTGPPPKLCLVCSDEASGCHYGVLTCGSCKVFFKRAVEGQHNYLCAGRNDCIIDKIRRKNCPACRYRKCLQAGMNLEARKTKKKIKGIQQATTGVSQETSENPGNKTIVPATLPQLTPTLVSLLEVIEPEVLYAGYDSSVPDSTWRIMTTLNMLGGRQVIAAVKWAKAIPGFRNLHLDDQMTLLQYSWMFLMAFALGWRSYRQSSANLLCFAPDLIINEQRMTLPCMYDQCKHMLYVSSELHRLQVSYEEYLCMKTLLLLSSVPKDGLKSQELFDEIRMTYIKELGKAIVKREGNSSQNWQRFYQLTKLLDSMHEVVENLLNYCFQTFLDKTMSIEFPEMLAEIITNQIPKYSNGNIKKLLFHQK

[11] = target: Voltage-dependent L-type calcium channel subunit alpha-1C (Rattus norvegicus, UniProt P22002); format: functional
Also: assay procedure not described here.

5-hydroxytryptamine receptor 2B, sequence (P41595 whole entry): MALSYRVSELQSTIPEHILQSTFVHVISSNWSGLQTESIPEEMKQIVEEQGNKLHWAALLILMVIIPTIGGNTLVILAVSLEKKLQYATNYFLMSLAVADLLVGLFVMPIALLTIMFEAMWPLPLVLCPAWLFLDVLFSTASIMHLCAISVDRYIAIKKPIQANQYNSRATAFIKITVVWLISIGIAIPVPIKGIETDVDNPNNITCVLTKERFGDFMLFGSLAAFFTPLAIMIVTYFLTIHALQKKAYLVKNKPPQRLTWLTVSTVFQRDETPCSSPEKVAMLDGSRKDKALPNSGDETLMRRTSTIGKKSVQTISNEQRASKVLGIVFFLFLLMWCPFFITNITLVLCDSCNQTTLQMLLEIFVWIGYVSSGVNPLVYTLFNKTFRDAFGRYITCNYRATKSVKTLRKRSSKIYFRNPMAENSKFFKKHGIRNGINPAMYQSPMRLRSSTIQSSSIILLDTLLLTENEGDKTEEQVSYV
Beta-2 adrenergic receptor, sequence (P07550 whole entry): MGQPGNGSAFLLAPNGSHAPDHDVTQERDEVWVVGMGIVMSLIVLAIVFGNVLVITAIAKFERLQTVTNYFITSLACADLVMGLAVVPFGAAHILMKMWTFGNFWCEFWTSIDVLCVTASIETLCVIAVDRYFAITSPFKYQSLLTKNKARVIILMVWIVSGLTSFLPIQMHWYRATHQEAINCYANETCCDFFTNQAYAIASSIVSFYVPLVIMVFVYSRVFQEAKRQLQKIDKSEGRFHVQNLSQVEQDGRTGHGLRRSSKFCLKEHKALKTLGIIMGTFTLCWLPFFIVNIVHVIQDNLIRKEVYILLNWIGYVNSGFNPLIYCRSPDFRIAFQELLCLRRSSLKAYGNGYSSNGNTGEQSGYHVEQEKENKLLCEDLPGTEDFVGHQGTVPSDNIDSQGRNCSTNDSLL

Compound | AC50 [1] [µM] | AC50 [2] [µM] | AC50 [3] [µM] | AC50 [4] [µM] | AC50 [5] [µM] | AC50 (D(3) dopamine receptor) [µM] | AC50 [6] [µM] | AC50 [7] [µM] | AC50 (Estrogen receptor) [µM] | AC50 [8] [µM] | AC50 [9] [µM] | AC50 [10] [µM] | AC50 (Glucocorticoid receptor) [µM] | AC50 [11] [µM]
C#Cc1cccc(Nc2ncnc3cc(OCCOC)c(OCCOC)cc23)c1 [ERLOTINIB] | > 30 | > 30 | > 30 | > 30 | > 30 | > 30 | > 30 | > 30 | > 30 | > 30 |  |  |  | 
CCC(=O)O[C@@H](O[P@](=O)(CCCCc1ccccc1)CC(=O)N1C[C@H](C2CCCCC2)C[C@H]1C(=O)O)C(C)C [FOSINOPRIL] | > 30 | > 30 |  | > 30 |  | > 30 | > 30 | > 30 | > 30 |  | > 30 | > 30 |  | 
CN(C)c1cc(CNCC(C)(C)C)c(O)c2c1C[C@H]1C[C@H]3[C@H](N(C)C)C(O)=C(C(N)=O)C(=O)[C@@]3(O)C(O)=C1C2=O [OMADACYCLINE] | > 30 | > 30 |  | > 30 | > 30 | 27 | > 30 |  | > 30 | > 30 | > 30 | > 30 | > 30 | 
CNC(=O)c1cc(Oc2ccc(NC(=O)Nc3ccc(Cl)c(C(F)(F)F)c3)c(F)c2)ccn1 [REGORAFENIB] | > 30 |  |  | > 30 | 6.33 | > 30 |  |  | > 30 | > 30 |  |  |  | 
Cn1c(=O)c2[nH]cnc2n(C)c1=O [THEOPHYLLINE] | > 30 | > 10 | > 30 |  | > 30 | > 30 | > 10 | > 10 |  | > 10 | > 10 | > 10 |  | > 10

— ChEMBL document CHEMBL5291721, “A preclinical secondary pharmacology resource illuminates target-adverse drug reaction associations of marketed drugs” (Nat Commun, 2023)
